Structures can show the parent of a compound that is named as a salt.
What was measured:
rat sciatic nerve [1] = experiment: Duration of anesthesia of bupivacaine microspheres (LAB) with co-injected additives, hotplate foot withdrawal; assay type: in vivo; details: LAB 150 mg/kg perineural
Experimental: In this example, a large number of pharmaceutical agents were tested for activity in augmenting the duration of local anesthetic activity. Bupivacaine-containing microspheres at about 75% loading, by weight, were injected perineurally into rat sciatic nerve at a dose of 150 mg/kg (weight microspheres/weight rat) to dose of approximately 50 mg/nerve. For the injections, needle placement adjacent to the target nerve was optimized by intermittent electrical e stimulation of the target nerve (via the injection needle) with low amplitude current to produce limb flexion. For the injections, the microspheres were suspended in a carrier vehicle suitable for injection. While any pharmaceutically acceptable carrier vehicle is acceptable, for these experiments the carrier vehicle was 1% sodium carboxymethylcellulose and 1% Tween 80 in water.
Compounds to be tested were co-injected with bupivacaine containing microspheres (i.e., mixed as additives into the carrier vehicle) in a range of concentrations. Results are expressed as percent increase in duration relative to non-augmented durations that were obtained in the same animal model.
The duration of anesthesia was measured by the hotplate foot withdrawal method described above in Example 10 and refers to the time necessary for the animal to recover from maximal nerve latency (12 sec) to a latency of 7 seconds, approximately 50% recovery. The results are tabulated in Table 3 below as percent of control.

[2] = Microdialysis of bupivacaine at i.m. injection site in quadriceps muscle; assay type: in vivo, Sprague-Dawley rat; details: 3 mg i.m., quadriceps femoris
Experimental: To determine whether bupivacaine is released from EDLA in two phases in-vivo, bupivacaine HCl and EDLA was injected into the quadriceps muscles of rats in which microdialysis catheters had been previously placed. Bupivacaine HCl was injected i.m. into the quadriceps femoris of a Sprague-Dawley rat around the area of a microdialysis catheter. […] This rapid escape is consistent with the very short duration of anesthetic action aqueous bupivacaine has in this model. Diffusion of bupivacaine, quantitated by HPLC, was from a single compartment that followed first order kinetics, k=0.25±0.04 min^−1. (SS=3.613). […] The first compartment was apparently identical to the mechanism of escape of soluble bupivacaine HCl, since the rate constant was essentially identical (k=0.22/minute). […] Calibration was determined in vivo by delivery of a 10 ug/ml solution of bupivacaine. […] Excellular bupivacaine was measured in the dialysate every 10 minutes. In vivo extracelluar concentration was determined from the dialysate concentration by factoring in the microdialysis probe recovery which had been previously determined. […]

superficial radial nerve = experiment: Local anesthesia to pin prick after injection around the superficial radial nerve in normal volunteers; assay type: in vivo, humans; details: n=6; EDLA 3 ml (37.5 mg total) or aqueous bupivacaine HCl 50 mg, single injection
Experimental: Finally, the two compartment release of bupivacaine from EDLA results in rapid onset and prolonged duration of local anesthesia in humans. Normal volunteers (n=6) received a single injection of 3 ml EDLA (37.5 mg total) or aqueous bupivacaine HCl (50 mg) around the superficial radial nerve. Onset of local anesthesia to pin prick over the anatomical snuff box was <3 hours with aqueous bupivacaine with duration of action 6-8 hours. Onset of local anesthesia with EDLA was <3 hours with duration of action 48-72 hours.

rat sciatic nerve [3] = experiment: Rat sciatic nerve model, sensory testing (hotplate hindpaw withdrawal latency); assay type: in vivo; details: for duration of sensory block: augmenting agent with bupivacaine-loaded microspheres vs contralateral side with bupivacaine-loaded microspheres without the agent
Experimental: (§1) The duration of local anesthesia induced by the bupivacaine-loaded microspheres, prepared from PLGA 65:35, with and without the co-administration of an augmenting agent, is tested in a rat sciatic nerve model for localized local anesthesia. […] The latency test determines the time, in seconds, before a rat withdraws its hindpaw from a hotplate set to a safe but uncomfortable temperature (56° C.).
(§2) Selected rats are injected with a solution containing a suspension of bupivacaine-loaded microspheres plus co-administered augmenting agent on one side and injected with a control on the contralateral side so that each rat serves as its own control. Each injection is adjacent to the sciatic nerve. The controls are bupivacaine-loaded microspheres without co-administered augmenting agent and microspheres without any bupivacaine.
As previously discussed, the degree of sensory local anesthesia is measured by determining the time or latency, in seconds, before each rat withdraws its hindpaw from a hotplate set to a safe but uncomfortable temperature. Maximum sciatic nerve sensory blockade is defined as having a latency of about 12 seconds or higher.
Twenty-four rats each receive an injection of bupivacaine-loaded controlled release microspheres into the left or right side, co-administered with a dextran containing injection solution. The contralateral side receive either bupivacaine-loaded microspheres at the same dose, or unloaded microspheres co-administered with a dextran injection solution.
Sensory hot plate latency is measured from the time of the injections until the latency declined to under 2 seconds.

rat sciatic nerve [4] = experiment: Rat sciatic nerve model, motor testing (4-point scale); assay type: in vivo; details: augmenting agent with bupivacaine-loaded microspheres vs contralateral side with bupivacaine-loaded microspheres without the agent
Experimental: as §1, §2
The degree of motor blockade is measured by scoring the appearance of the affected foot for the signs of loss of motor tone. The assessment is conducted as follows using a 4-point scale based on visual observation: (1) normal appearance, (2) intact dorsiflexion of foot with an impaired ability to splay toes when elevated by the tail, (3) toes and foot remained plantar flexed with no splaying ability, and (4) loss of dorsiflexion, flexion of toes, and impairment of gait.
Motor blockade is scored until the hind paws of motor blockades rats returned to a normal appearance.
Sensory and motor testing is conducted according to sections A and B, respectively, of EXAMPLE 10, above. Using the experimental protocol of section C of EXAMPLE 10, 24 rats are tested.
Sensory and motor testing is conducted according to sections A and B, respectively, of EXAMPLE 10, above.

[5] = immediate release vasoconstrictor, at best; cited from earlier work
rat sciatic nerve [6] = experiment: Duration of anesthesia of bupivacaine microspheres (LAB) with co-injected additives, hotplate foot withdrawal; assay type: in vivo; details: read-out: Duration Anesthesia As Percent of Control

C[C@]12CC[C@@H](O)C[C@@H]1CC[C@@H]1[C@@H]2C(=O)C[C@@]2(C)[C@H]1CC[C@]2(O)C(=O)CO [Allotetrahydrocortisone, allotetrahydrocortisone]
Duration Anesthesia As Percent of Control (rat sciatic nerve [1]; % Additive Conc. 0.05): 100% of Control | Duration Anesthesia As Percent of Control (rat sciatic nerve [1]; % Additive Conc. 0.5): 117% of Control

CC1=NS(=O)(=O)c2cc(Cl)ccc2N1 [Diazoxide]
Duration Anesthesia As Percent of Control (rat sciatic nerve [1]; % Additive Conc. 0.05): 138% of Control | Duration Anesthesia As Percent of Control (rat sciatic nerve [1]; % Additive Conc. 0.5): 109% of Control

Nc1ccncc1 [Aminopyridine (4-AP), Aminopyridine]
Duration Anesthesia As Percent of Control (rat sciatic nerve [1]; % Additive Conc. 0.05): 77% of Control | Duration Anesthesia As Percent of Control (rat sciatic nerve [1]; % Additive Conc. 0.11): 92% of Control | Duration Anesthesia As Percent of Control (rat sciatic nerve [1]; % Additive Conc. 1.09): 131% of Control

CCCCN1CCCCC1C(=O)Nc1c(C)cccc1C (centres unmarked) [bupivacaine HCl]
k, first order escape of bupivacaine from i.m. injection site (single compartment) [2]: 0.25 ± 0.04 min⁻¹ | duration of action of local anesthesia (superficial radial nerve): 6 to 8 h

CC[N+](CC)(CC)CC [Tetraethylammonium]
Duration Anesthesia As Percent of Control (rat sciatic nerve [1]; % Additive Conc. 0.05): 95% of Control | Duration Anesthesia As Percent of Control (rat sciatic nerve [1]; % Additive Conc. 0.5): 123% of Control

COc1ccc2c(c1)CC[C@@H]1[C@@H]2CC[C@]2(C)[C@@H](NCCCCCCN3C(=O)C=CC3=O)CC[C@@H]12 [U-73, 122, 1[6-[[17-beta-3-methoxyestra-1,3,5(10)-triene-17-yl]amino]hexl]1-H-pyrrole-2,5-dione]
Duration Anesthesia As Percent of Control (rat sciatic nerve [1]; % Additive Conc. 0.05): 106% of Control | Duration Anesthesia As Percent of Control (rat sciatic nerve [1]; % Additive Conc. 0.5): 115% of Control

CC(=O)[C@H]1CC[C@H]2[C@@H]3CC[C@H]4C[C@H](O)CC[C@]4(C)[C@H]3C(=O)C[C@]12C [Alphaxalone]
Duration Anesthesia As Percent of Control (rat sciatic nerve [1]; % Additive Conc. 0.05): 169% of Control | Duration Anesthesia As Percent of Control (rat sciatic nerve [1]; % Additive Conc. 0.5): 123% of Control

Nc1cc(N2CCCCC2)nc(N)[n+]1[O-] [Minoxidil]
Duration Anesthesia As Percent of Control (rat sciatic nerve [1]; % Additive Conc. 0.05): 54% of Control | Duration Anesthesia As Percent of Control (rat sciatic nerve [1]; % Additive Conc. 0.5): 218-265% of Control

CC[C@]1(O)C[C@@H]2CN(CCc3c([nH]c4ccccc34)[C@@](C(=O)OC)(c3cc4c(cc3OC)N(C)[C@H]3[C@@](O)(C(=O)OC)[C@H](OC(C)=O)[C@]5(CC)C=CCN6CC[C@]43[C@@H]65)C2)C1 [Vinblastine]
Duration Anesthesia As Percent of Control (rat sciatic nerve [1]; % Additive Conc. 0.05): 158% of Control | Duration Anesthesia As Percent of Control (rat sciatic nerve [1]; % Additive Conc. 0.11): 37% of Control | Duration Anesthesia As Percent of Control (rat sciatic nerve [1]; % Additive Conc. 1.09): 40% of Control

C[C@@H]1O[C@@H](O[C@H]2C[C@@H](O)[C@]3(CO)[C@H]4[C@H](O)C[C@]5(C)[C@@H](C6=CC(=O)OC6)CC[C@]5(O)[C@@H]4CC[C@]3(O)C2)[C@H](O)[C@H](O)[C@H]1O [Ouabain]
Duration Anesthesia As Percent of Control (rat sciatic nerve [1]; % Additive Conc. 0.05): 154% of Control | Duration Anesthesia As Percent of Control (rat sciatic nerve [1]; % Additive Conc. 0.5): 178% of Control

Cc1c(N(C)C)c(=O)n(-c2ccccc2)n1C [Aminopyrine]
Duration Anesthesia As Percent of Control (rat sciatic nerve [1]; % Additive Conc. 0.05): 146% of Control | Duration Anesthesia As Percent of Control (rat sciatic nerve [1]; % Additive Conc. 0.5): 62% of Control

CC(=O)O[C@H]1C(=O)[C@@]2(C)[C@H]([C@H](OC(=O)c3ccccc3)[C@]3(O)C[C@H](OC(=O)[C@H](O)[C@@H](NC(=O)c4ccccc4)c4ccccc4)C(C)=C1C3(C)C)[C@]1(OC(C)=O)CO[C@@H]1C[C@@H]2O [Taxol]
Duration Anesthesia As Percent of Control (rat sciatic nerve [1]; % Additive Conc. 0.11): 104% of Control | Duration Anesthesia As Percent of Control (rat sciatic nerve [1]; % Additive Conc. 0.5): 82% of Control | Duration Anesthesia As Percent of Control (rat sciatic nerve [1]; % Additive Conc. 1.09): 108% of Control

CN1C(=O)CN=C(c2ccccc2)c2cc(Cl)ccc21 [Diazepam]
Duration Anesthesia As Percent of Control (rat sciatic nerve [1]; % Additive Conc. 0.05): 231% of Control | Duration Anesthesia As Percent of Control (rat sciatic nerve [1]; % Additive Conc. 0.5): 203% of Control

CNC[C@H](O)c1ccc(O)c(O)c1 [epinephrine]
duration of sensory block (rat sciatic nerve [3]): significantly longer duration of sensory block | duration of motor block (rat sciatic nerve [4]): significantly increased duration of motor block | prolongation of local anesthetic activity [5]: ≤ 1 h

CN[C@@H](C)[C@H](O)c1ccccc1 [ephedrine]
duration of sensory block (rat sciatic nerve [3]): significantly longer duration of sensory block | duration of motor block (rat sciatic nerve [4]): significantly increased duration of motor block

NC(=NCc1ccccc1)NC(=O)c1nc(Cl)c(N)nc1N [Benzamil]
Duration Anesthesia As Percent of Control (rat sciatic nerve [1]; % Additive Conc. 0.05): 83% of Control | Duration Anesthesia As Percent of Control (rat sciatic nerve [1]; % Additive Conc. 0.5): 154% of Control

Clc1cccc(Cl)c1N=C1NCCN1 [Clonidine]
Duration Anesthesia As Percent of Control (rat sciatic nerve [1]; % Additive Conc. 0.05): 122% of Control | Duration Anesthesia As Percent of Control (rat sciatic nerve [1]; % Additive Conc. 0.5): 71% of Control

CCCC(CCC)C(=O)O [Valproic Acid]
Duration Anesthesia As Percent of Control (rat sciatic nerve [1]; % Additive Conc. 0.05): 152% of Control | Duration Anesthesia As Percent of Control (rat sciatic nerve [1]; % Additive Conc. 0.5): 138% of Control

Dextran
duration of sensory block (rat sciatic nerve [3]): significantly longer duration of sensory block | sensory blockade (rat sciatic nerve [3]; unloaded microspheres with dextran alone): no sensory blockade | duration of motor block (rat sciatic nerve [4]): significantly increased duration of motor block | Duration Anesthesia As Percent of Control (rat sciatic nerve [1]; % Additive Conc. 3): 46-144% of Control

COc1cc2c(c(OC)c1OC)-c1ccc(OC)c(=O)cc1[C@@H](NC(C)=O)CC2 [Colchicine]
Duration Anesthesia As Percent of Control (rat sciatic nerve [1]; % Additive Conc. 0.01): 104% of Control | Duration Anesthesia As Percent of Control (rat sciatic nerve [1]; % Additive Conc. 1.0): 277% of Control | Duration Anesthesia As Percent of Control (rat sciatic nerve [1]; % Additive Conc. 10): toxic | response vs control in vivo at 0.1 % (rat sciatic nerve [6]; % Additive Conc. 0.1, Placebo (in place of LAB)): 0% | response vs control in vivo at 10 % (rat sciatic nerve [6]; % Additive Conc. 10, no LAB): 0%

CC(N)Cc1ccccc1 (centres unmarked) [amphetamine]
duration of sensory block (rat sciatic nerve [3]): significantly longer duration of sensory block | duration of motor block (rat sciatic nerve [4]): significantly increased duration of motor block

O=C1NC(=O)C(c2ccccc2)(c2ccccc2)N1 [5,5-diphenylhydantoin]
Duration Anesthesia As Percent of Control (rat sciatic nerve [1]; % Additive Conc. 0.11): 152% of Control | Duration Anesthesia As Percent of Control (rat sciatic nerve [1]; % Additive Conc. 1.09): 138% of Control
